Source: ChEMBL document CHEMBL1152583 (Bioorg Med Chem, 2009)
pIC50: −log10 of the molar value.

Legend:
[1] = molecular target: Acetylcholinesterase (Torpedo californica) (UniProt P04058); conditions: Tetronarce californica; 0.625 uM
Description: Inhibition of Torpedo california AChE at 0.625 uM by Ellman's method

Acetylcholinesterase [2] = molecular target: Acetylcholinesterase (Torpedo californica, UniProt P04058)
Description: Inhibition of Torpedo california AChE by Ellman's method

[3] = molecular target: Acetylcholinesterase (Torpedo californica) (UniProt P04058); conditions: Tetronarce californica; 1.25 uM
Description: Inhibition of Torpedo california AChE at 1.25 uM by Ellman's method

Acetylcholinesterase [4] = molecular target: Acetylcholinesterase (Homo sapiens, UniProt P22303)
Acetylcholinesterase (Homo sapiens, UniProt P22303), sequence (P22303 whole entry): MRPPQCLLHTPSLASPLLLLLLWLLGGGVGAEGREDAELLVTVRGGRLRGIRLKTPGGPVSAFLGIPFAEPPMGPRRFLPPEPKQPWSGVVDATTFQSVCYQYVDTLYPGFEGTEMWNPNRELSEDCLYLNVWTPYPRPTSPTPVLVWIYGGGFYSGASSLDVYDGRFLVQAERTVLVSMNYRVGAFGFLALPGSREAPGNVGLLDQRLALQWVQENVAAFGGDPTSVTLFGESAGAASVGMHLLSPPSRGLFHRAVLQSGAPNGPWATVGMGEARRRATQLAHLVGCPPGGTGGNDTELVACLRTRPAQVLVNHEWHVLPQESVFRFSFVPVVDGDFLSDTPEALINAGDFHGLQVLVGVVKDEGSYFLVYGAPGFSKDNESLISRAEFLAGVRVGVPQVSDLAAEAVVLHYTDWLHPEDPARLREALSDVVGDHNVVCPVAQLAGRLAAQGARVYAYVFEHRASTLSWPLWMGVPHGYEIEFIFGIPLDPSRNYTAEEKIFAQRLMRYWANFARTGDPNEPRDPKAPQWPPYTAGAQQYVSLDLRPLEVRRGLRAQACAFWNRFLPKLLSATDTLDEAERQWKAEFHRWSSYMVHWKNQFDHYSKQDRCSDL
Description: Inhibition of human AChE by Ellman's method

[5] = molecular target: Acetylcholinesterase (Torpedo californica) (UniProt P04058); conditions: Tetronarce californica; 25 uM
Description: Inhibition of Torpedo california AChE at 25 uM by Ellman's method

[6] = molecular target: Acetylcholinesterase (Torpedo californica) (UniProt P04058); conditions: Tetronarce californica; 0.313 uM
Description: Inhibition of Torpedo california AChE at 0.313 uM by Ellman's method

[7] = molecular target: Acetylcholinesterase (Torpedo californica) (UniProt P04058); conditions: Tetronarce californica; 5 uM
Description: Inhibition of Torpedo california AChE at 5 uM by Ellman's method

[8] = molecular target: Acetylcholinesterase (Torpedo californica) (UniProt P04058); assay: Inhibition of Torpedo california AChE at 0.625 nM by Ellman's method; conditions: Tetronarce californica
[9] = molecular target: Acetylcholinesterase (Torpedo californica) (UniProt P04058); assay: Inhibition of Torpedo california AChE at 1.25 nM by Ellman's method; conditions: Tetronarce californica
[10] = molecular target: Acetylcholinesterase (Torpedo californica) (UniProt P04058); assay: Inhibition of Torpedo california AChE at 0.313 nM by Ellman's method; conditions: Tetronarce californica
[11] = molecular target: Acetylcholinesterase (Torpedo californica) (UniProt P04058); assay: Inhibition of Torpedo california AChE at 0.5 nM by Ellman's method; conditions: Tetronarce californica
[12] = molecular target: Acetylcholinesterase (Torpedo californica) (UniProt P04058); assay: Inhibition of Torpedo california AChE at 0.25 nM by Ellman's method; conditions: Tetronarce californica
[13] = molecular target: Acetylcholinesterase (Torpedo californica) (UniProt P04058); assay: Inhibition of Torpedo california AChE at 0.125 nM by Ellman's method; conditions: Tetronarce californica
[14] = molecular target: Acetylcholinesterase (Torpedo californica) (UniProt P04058); assay: Inhibition of Torpedo california AChE at 31.3 pM by Ellman's method; conditions: Tetronarce californica
[15] = molecular target: Acetylcholinesterase (Torpedo californica) (UniProt P04058); assay: Ratio of IC50 for drug to P0407 for Torpedo california AChE by Ellman's method; conditions: Tetronarce californica
[16] = molecular target: Acetylcholinesterase (Torpedo californica) (UniProt P04058); assay: Inhibition of Torpedo california AChE at 7.81 pM by Ellman's method; conditions: Tetronarce californica
[17] = molecular target: Acetylcholinesterase (Torpedo californica) (UniProt P04058); assay: Inhibition of Torpedo california AChE at 15.6 pM by Ellman's method; conditions: Tetronarce californica
[18] = molecular target: Acetylcholinesterase (Torpedo californica) (UniProt P04058); assay: Inhibition of Torpedo california AChE at 62.5 pM by Ellman's method; conditions: Tetronarce californica
[19] = molecular target: Acetylcholinesterase (Torpedo californica) (UniProt P04058); assay: Inhibition of Torpedo california AChE at 2.5 nM by Ellman's method; conditions: Tetronarce californica
[20] = molecular target: Acetylcholinesterase (Torpedo californica) (UniProt P04058); assay: Inhibition of Torpedo california AChE at 5 nM by Ellman's method; conditions: Tetronarce californica
[21] = molecular target: Acetylcholinesterase (Torpedo californica) (UniProt P04058); conditions: Tetronarce californica; 60.5 nM
Description: Inhibition of Torpedo california AChE at 60.5 nM by Ellman's method

[22] = molecular target: Acetylcholinesterase (Torpedo californica) (UniProt P04058); assay: Inhibition of Torpedo california AChE at 7.56 nM by Ellman's method; conditions: Tetronarce californica
[23] = molecular target: Acetylcholinesterase (Torpedo californica) (UniProt P04058); assay: Inhibition of Torpedo california AChE at 30.3 nM by Ellman's method; conditions: Tetronarce californica
[24] = molecular target: Acetylcholinesterase (Torpedo californica) (UniProt P04058); assay: Inhibition of Torpedo california AChE at 15.1 nM by Ellman's method; conditions: Tetronarce californica

Acetylcholinesterase (Torpedo californica, UniProt P04058), sequence (P04058 whole entry): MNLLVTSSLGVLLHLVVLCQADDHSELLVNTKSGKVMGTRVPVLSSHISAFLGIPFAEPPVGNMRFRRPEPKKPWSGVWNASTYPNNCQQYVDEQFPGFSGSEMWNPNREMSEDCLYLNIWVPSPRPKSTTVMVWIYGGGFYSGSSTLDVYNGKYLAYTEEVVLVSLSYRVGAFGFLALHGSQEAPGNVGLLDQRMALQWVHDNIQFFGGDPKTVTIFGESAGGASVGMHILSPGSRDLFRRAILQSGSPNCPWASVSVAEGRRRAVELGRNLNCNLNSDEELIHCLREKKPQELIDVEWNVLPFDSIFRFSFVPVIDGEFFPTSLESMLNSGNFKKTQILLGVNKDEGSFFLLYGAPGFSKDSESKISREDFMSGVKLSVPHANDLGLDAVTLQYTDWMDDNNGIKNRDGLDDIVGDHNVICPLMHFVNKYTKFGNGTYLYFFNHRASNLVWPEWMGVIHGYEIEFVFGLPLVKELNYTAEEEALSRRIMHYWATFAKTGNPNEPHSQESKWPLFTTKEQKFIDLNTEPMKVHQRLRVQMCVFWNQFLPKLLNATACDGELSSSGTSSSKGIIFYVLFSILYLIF
Acetylcholinesterase (Torpedo californica), sequence (P04058 22-564 limits assumed): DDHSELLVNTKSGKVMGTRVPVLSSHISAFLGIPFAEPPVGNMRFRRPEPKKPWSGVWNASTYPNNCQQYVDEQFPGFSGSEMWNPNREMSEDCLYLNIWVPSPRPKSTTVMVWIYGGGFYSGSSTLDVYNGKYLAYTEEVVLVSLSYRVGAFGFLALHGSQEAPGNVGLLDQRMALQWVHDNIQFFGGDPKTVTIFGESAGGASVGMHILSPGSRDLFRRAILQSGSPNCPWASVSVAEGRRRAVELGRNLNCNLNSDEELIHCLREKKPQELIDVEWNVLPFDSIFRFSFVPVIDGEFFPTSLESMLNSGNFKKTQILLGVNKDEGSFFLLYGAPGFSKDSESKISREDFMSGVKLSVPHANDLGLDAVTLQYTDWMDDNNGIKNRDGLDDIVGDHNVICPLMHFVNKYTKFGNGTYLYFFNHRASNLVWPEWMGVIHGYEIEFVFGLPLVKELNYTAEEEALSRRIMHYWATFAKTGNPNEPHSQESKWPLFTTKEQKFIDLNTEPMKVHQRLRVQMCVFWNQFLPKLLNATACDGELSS

| Compound | pIC50 (Acetylcholinesterase [2]) | pIC50 (Acetylcholinesterase [4]) | inhibition [13] [%] | inhibition [14] [%] | Ratio [15] | inhibition [16] [%] | inhibition [17] [%] | inhibition [18] [%] | other results |
| --- | --- | --- | --- | --- | --- | --- | --- | --- | --- |
| C/C=C1\[C@H]2C=C(C)C[C@]1(/N=C/C(=C/c1ccccc1)CCCCC)c1ccc(=O)[nH]c1C2 | 6.10 | 7.29 |  |  |  |  |  |  | inhibition [1]: 44.2%; inhibition [3]: 58.6%; inhibition [5]: 79%; inhibition [6]: 30.4%; inhibition [7]: 86% |
| C/C=C1\[C@H]2C=C(C)C[C@]1(/N=C/c1ccc(O)c(OCC)c1)c1ccc(=O)[nH]c1C2 | 9.07 | 7.60 |  |  |  |  |  |  | inhibition [8]: 43.6%; inhibition [9]: 56.2%; inhibition [10]: 28.2%; inhibition [11]: 84%; inhibition [12]: 68.1% |
| C/C=C1\[C@H]2C=C(C)C[C@]1(/N=C/c1ccc(N(C)C)cc1)c1ccc(=O)[nH]c1C2 | 7.63 | 7.51 |  |  |  |  |  |  |  |
| C=CCOc1ccc(/C=N/[C@@]23CC(C)=C[C@@H](Cc4[nH]c(=O)ccc42)/C3=C\C)cc1 | 7.86 | 7.51 |  |  |  |  |  |  |  |
| C/C=C1\[C@H]2C=C(C)C[C@]1(/N=C/c1ccc(OC)cc1OC)c1ccc(=O)[nH]c1C2 | 10.35 | 7.08 | 76.5 | 36.2 | 477 | 15.9 | 22.1 | 62.8 |  |
| C/C=C1\[C@H]2C=C(C)C[C@]1(/N=C/c1ccc(C#N)cc1)c1ccc(=O)[nH]c1C2 | 10.39 | 7.66 | 89.3 | 38.7 | 517 | 12.6 | 26 | 79.4 |  |
| C/C=C1\[C@H]2C=C(C)C[C@]1(/N=C/C=C/c1ccccc1)c1ccc(=O)[nH]c1C2 | 8.74 | 7.62 |  |  |  |  |  |  | inhibition [8]: 16.7%; inhibition [19]: 62.5%; inhibition [9]: 37.1%; inhibition [20]: 83.4%; inhibition [10]: 5.5% |
| C/C=C1\[C@H]2C=C(C)C[C@]1(/N=C/c1cc(OC)cc(OC)c1)c1ccc(=O)[nH]c1C2 | 10.70 | 7.54 | 90.8 | 61.7 | 1060 | 28.5 | 41.3 | 80.6 | inhibition [21]: 73.7% |
| CNC(=O)Oc1ccc2c(c1)[C@]1(C)CCN(C)[C@@H]1N2C |  |  |  |  |  |  |  |  | inhibition [22]: 24.7%; inhibition [23]: 64.3%; inhibition [24]: 45.5% |
| C/C=C1\[C@H]2C=C(C)C[C@]1(/N=C/c1ccccc1OS(=O)(=O)O)c1ccc(=O)[nH]c1C2 | 7.74 | 7.39 |  |  |  |  |  |  |  |
